Laboratory results reported in patent US8071290B2, “Hypermethylation of GATA-4 and GATA-5 transcription factor genes in cancer” (Johns Hopkins University School of Medicine, priority 2003, dated 2011).
Marks after values point to notes of the source that are not given here.

What was measured:
Assay type in all cases: cell-based, human
[1] = test system: RKO colon cancer cell line; assay: DAC treatment, gene expression by RT-PCR in RKO; design: key to GATA-5 expression (Exp, A = DAC treatment) / GATA-6 expression (Exp, A = DAC treatment) / TFF1 expression (Exp, A = DAC treatment) / TFF2 expression (Exp, A = DAC treatment) / TFF3 expression (Exp, A = DAC treatment) / Inhibin α expression (Exp, A = DAC treatment) / Dab2 expression (Exp, A = DAC treatment) / GATA-4 expression (Exp, A = DAC treatment): −: Undetectable level; +: detectable level of expression, by RT-PCR; ++: increased expression level from +basal level
Description: (§1) The CRC and Az521 cell lines were grown in DMEM, MEM or McCoy's medium supplemented with 10% fetal bovine serum, penicillin and streptomycin. For demethylation studies, cells were treated daily with […] 5-aza-2′deoxycytidine (DAC; Sigma Chemical Co.; St. Louis Mo.) for 48 hr (41). Az521 and HCT116 cells also were treated with the histone deacetylase inhibitor, TSA (Wako), alone, or with a combination of DAC plus TSA (41; 6). Total RNA was isolated using the TRIZOL reagent (Invitrogen Corp.; Carlsbad Calif.).
(§2) For RT-PCR, 2 μg of total RNA was reverse transcribed using the SUPERSCRIPT reverse transcription kit (Invitrogen); all genes were amplified with multiple cycle numbers (28-35 cycles) for obtaining semi-quantitative differences in their expression levels. Primer pairs for GATA-1 to GATA-6 and for the GATA-5 target genes are shown in Table 2 (see, also, Bai et al., Mol. Carcinog. 28:184-188, 2000, which is incorporated herein by reference). Annealing was performed at the indicated temperatures, and PCR was performed for the indicated number of cycles (Table 2, below). PCR conditions were as follows: first denature, 95° C., 5 min; denature, 95° C., 1 min; anneal, temperature shown in Table 2 (° C.), 1 min; extension, 72° C., 1 min; final extension, 72° C., 10 min.
(§3) GATA-4, GATA-5and GATA-6 expression was examined in gastrointestinal cancer cell lines. GATA-4, GATA-5 and GATA-6 expression levels were examined by RT-PCR in seven cancer cell lines (colon cancer cell lines RKO, DLD1, HCT116, HT29, LoVo, and SW480; and gastric cancer cell line AZ521) with or without (mock) treatment with 5′-aza-2′-deoxycytidine (DAC) and in normal colonic mucosa (NC) and peripheral blood lymphocytes (PBL). GAPDH expression was used for an internal loading control for the RT-PCR. Gastric cancer cells, AZ521, were treated with low dose DAC alone, TSA alone, or a combination of these two drugs (A/T), or were mock treated, and examined by RT-PCR. GATA-4 and GATA-5 expression were examined in wild type (WT) HCT116 colon cancer cells, and two clones each of these cells in which both alleles of DNA methyltransferase 1 (DNMTI-KO), DNMT 3b (DNMT3b-KO), or both DNMTs were knocked out (21). PCR products recognizing unmethylated and methylated CpG sites were analyzed in 2.5% agarose gels stained by ethidium bromide.

[2] = test system: DLD1 colon cancer cell line; assay: DAC treatment, gene expression by RT-PCR in DLD1; design: key: −: Undetectable level; +: detectable level of expression, by RT-PCR; ++: increased expression level from +basal level; details: 5 pM DAC daily for 48 hr
Description: as §1, §2, §3

[3] = test system: HCT116 colon cancer cell line; assay: DAC treatment, gene expression by RT-PCR in HCT116; design: key to GATA-5 expression (Exp, A = DAC treatment) / GATA-6 expression (Exp, A = DAC treatment) / TFF1 expression (Exp, A = DAC treatment) / TFF2 expression (Exp, A = DAC treatment) / TFF3 expression (Exp, A = DAC treatment) / Inhibin α expression (Exp, A = DAC treatment) / Dab2 expression (Exp, A = DAC treatment) / GATA-4 expression (Exp, A = DAC treatment): −: Undetectable level; +: detectable level of expression, by RT-PCR; ++: increased expression level from +basal level
Description: as §1, §2, §3

[4] = test system: HT29 colon cancer cell line; assay: DAC treatment, gene expression by RT-PCR in HT29; design: key: −: Undetectable level; +: detectable level of expression, by RT-PCR; ++: increased expression level from +basal level; details: 5 pM DAC daily for 48 hr
Description: as §1, §2, §3

[5] = test system: LoVo colon cancer cell line; assay: DAC treatment, gene expression by RT-PCR in LoVo; design: key: −: Undetectable level; +: detectable level of expression, by RT-PCR; ++: increased expression level from +basal level; details: 5 pM DAC daily for 48 hr
Description: as §1, §2, §3

[6] = test system: SW480 colon cancer cell line; assay: DAC treatment, gene expression by RT-PCR in SW480; design: key: −: Undetectable level; +: detectable level of expression, by RT-PCR; ++: increased expression level from +basal level; details: 5 pM DAC daily for 48 hr
Description: as §1, §2, §3

[7] = test system: AZ521 gastric cancer cell line; assay: DAC treatment, gene expression by RT-PCR in AZ521; design: key to GATA-4 expression (Exp, A = DAC treatment) / GATA-5 expression (Exp, A = DAC treatment) / GATA-6 expression (Exp, A = DAC treatment) / TFF1 expression (Exp, A = DAC treatment) / TFF2 expression (Exp, A = DAC treatment) / TFF3 expression (Exp, A = DAC treatment) / Inhibin α expression (Exp, A = DAC treatment) / Dab2 expression (Exp, A = DAC treatment): −: Undetectable level; +: detectable level of expression, by RT-PCR; ++: increased expression level from +basal level
Description: as §1, §2, §3

[8] = test system: colon cancer cell lines RKO, DLD1, HCT116, HT29, LoVo, and SW480; and gastric cancer cell line AZ521; assay: DAC treatment of the seven cancer cell lines, RT-PCR
Description: as §1, §2
as §3, with “GATA-4 and GATA-5 expression were examined in wild type (WT) HCT116 colon cancer cells, and two clones each of these cells in which both alleles of DNA methyltransferase 1 (DNMTI-KO), DNMT 3b (DNMT3b-KO), or both DNMTs were knocked out (21).” left out

[9] = test system: Gastric cancer cells, AZ521; assay: TSA alone or low dose DAC plus TSA, RT-PCR of GATA-4 and GATA-5
Description: as §1
as §2, with “PCR conditions were as follows: first denature, 95° C., 5 min; denature, 95° C., 1 min; anneal, temperature shown in Table 2 (° C.), 1 min; extension, 72° C., 1 min; final extension, 72° C., 10 min.” left out
GATA-4, GATA-5and GATA-6 expression was examined in gastrointestinal cancer cell lines. […] PCR products recognizing unmethylated and methylated CpG sites were analyzed in 2.5% agarose gels stained by ethidium bromide.

[10] = 5 pM DAC daily for 48 hr, RT-PCR
[11] = HCT116, 5 pM DAC daily for 48 hr, RT-PCR
[12] = AZ521, 5 pM DAC daily for 48 hr, RT-PCR

SMILES: Nc1ncn([C@H]2C[C@H](O)[C@@H](CO)O2)c(=O)n1 [DAC, 5-aza-2′-deoxycytidine]
- TFF2 re-expression after DAC treatment [1]: did not re-express
- Dab2 expression (Exp, A = DAC treatment) [1, 10]: +
- GATA-4 expression (Exp, A = DAC treatment) [1, 10]: +
- GATA-5 expression (Exp, A = DAC treatment) [1, 10]: +
- GATA-6 expression (Exp, A = DAC treatment) [1, 10]: +
- Inhibin α expression (Exp, A = DAC treatment) [1, 10]: +
- TFF1 expression (Exp, A = DAC treatment) [1, 10]: +
- TFF2 expression (Exp, A = DAC treatment) [1, 10]: −
- TFF3 expression (Exp, A = DAC treatment) [1, 10]: +
- Dab2 reactivation following DAC treatment ([1]; gene basally silent): reactivated
- Dab2 expression (Exp, A = DAC treatment) [2]: +
- GATA-4 expression (Exp, A = DAC treatment) [2]: +
- GATA-5 expression (Exp, A = DAC treatment) [2]: +
- GATA-6 expression (Exp, A = DAC treatment) [2]: +
- Inhibin α expression (Exp, A = DAC treatment) [2]: +
- TFF1 expression (Exp, A = DAC treatment) [2]: ++
- TFF2 expression (Exp, A = DAC treatment) [2]: +
- TFF3 expression (Exp, A = DAC treatment) [2]: +
- TFF2 activation by DAC ([3]; HCT116, TFF2 promoter present): readily activated
- Dab2 expression (Exp, A = DAC treatment) [3, 11]: +
- GATA-4 expression (Exp, A = DAC treatment) [3, 11]: +
- GATA-5 expression (Exp, A = DAC treatment) [3, 11]: +
- GATA-6 expression (Exp, A = DAC treatment) [3, 11]: +
- Inhibin α expression (Exp, A = DAC treatment) [3, 11]: +
- TFF1 expression (Exp, A = DAC treatment) [3, 11]: +
- TFF2 expression (Exp, A = DAC treatment) [3, 11]: +
- TFF3 expression (Exp, A = DAC treatment) [3, 11]: +
- Dab2 expression (Exp, A = DAC treatment) [4]: +
- GATA-4 expression (Exp, A = DAC treatment) [4]: +
- GATA-5 expression (Exp, A = DAC treatment) [4]: +
- GATA-6 expression (Exp, A = DAC treatment) [4]: +
- TFF1 expression (Exp, A = DAC treatment) [4]: ++
- TFF2 expression (Exp, A = DAC treatment) [4]: +
- TFF3 expression (Exp, A = DAC treatment) [4]: +
- Dab2 expression (Exp, A = DAC treatment) [5]: +
- GATA-4 expression (Exp, A = DAC treatment) [5]: ++^4)
- GATA-5 expression (Exp, A = DAC treatment) [5]: ++
- GATA-6 expression (Exp, A = DAC treatment) [5]: +
- Inhibin α expression (Exp, A = DAC treatment) [5]: ++
- TFF1 expression (Exp, A = DAC treatment) [5]: ++
- TFF2 expression (Exp, A = DAC treatment) [5]: +
- TFF3 expression (Exp, A = DAC treatment) [5]: ++
- Dab2 expression (Exp, A = DAC treatment) [6]: +
- GATA-4 expression (Exp, A = DAC treatment) [6]: +
- GATA-5 expression (Exp, A = DAC treatment) [6]: +
- GATA-6 expression (Exp, A = DAC treatment) [6]: +
- Inhibin α expression (Exp, A = DAC treatment) [6]: ++
- TFF1 expression (Exp, A = DAC treatment) [6]: +
- TFF2 expression (Exp, A = DAC treatment) [6]: +
- TFF3 expression (Exp, A = DAC treatment) [6]: +
- Dab2 expression (Exp, A = DAC treatment) [7, 12]: +
- GATA-4 expression (Exp, A = DAC treatment) [7, 12]: +
- GATA-5 expression (Exp, A = DAC treatment) [7, 12]: +
- GATA-6 expression (Exp, A = DAC treatment) [7, 12]: +
- Inhibin α expression (Exp, A = DAC treatment) [7, 12]: ++
- TFF1 expression (Exp, A = DAC treatment) [7, 12]: +
- TFF2 expression (Exp, A = DAC treatment) [7, 12]: −
- TFF3 expression (Exp, A = DAC treatment) [7, 12]: +
- TFF2 re-expression after DAC treatment ([7]; Az521): did not re-express
- re-expression of each basally silent GATA gene, except GATA-1 ([8]; DAC treatment, RT-PCR): re-expressed
- low basal expression of TFF1, TFF3, inhibin α after DAC ([8]; DAC, in many instances): further increased
- activation of each downstream gene (TFF1, TFF2, TFF3, inhibin α, Dab2) ([8]; DAC, virtually every cell line in which the gene lacked basal expression): activated

SMILES: CC(/C=C/C(=O)NO)=C\[C@@H](C)C(=O)c1ccc(N(C)C)cc1 [TSA]
- reactivation of the silenced GATA-4 and GATA-5 genes ([9]; TSA alone): failed to reactivate
- reactivating expression of the silenced GATA-4 and GATA-5 genes ([9]; TSA applied with a low dose of DAC): synergistic
